Assay results taken from US20220213047A1, “CARBONIC ANHYDRASE INHIBITORS FOR TREATMENT OF NEISSERIA GONORRHOEAE INFECTION” (Purdue Research Foundation, priority 2021, published 2022).
Converted amounts (≈) assume the structure as drawn.

How the values were obtained:
Enterococcus = assay: MIC50 against pathogenic and commensal bacteria: Enterococcus; type: cell-based; conditions: Enterococcus (49 strains); normal
Description: (§1) We have shown that CAIs display a narrow-spectrum of activity (Table 6). We have previously shown that CAIs have potential as anti-enterococcal agents for decolonization of the gut and treating systemic vancomycin-resistant enterococci (VRE) infections without affecting commensal strains common in the human microbiome or other pathogenic bacteria. […] The extremely narrow spectrum of this class of inhibitors would be a positive for clinical use as the molecules: 1) would not have deleterious effects on normal microbiota, and 2) would have less opportunity for resistance to arise to other important pathogenic strains aside from VRE.

S. epidermidis = assay: MIC50 against pathogenic and commensal bacteria: S. epidermidis; type: cell-based; conditions: Staphylococcus epidermidis; S. epidermidis (3 strains); normal
Description: as §1

ATCC strain 700825 = assay: MICs against ATCC strain 700825; type: cell-based, N. gonorrhoeae; conditions: Neisseria gonorrhoeae
Procedure: These tests were performed in normal culture conditions with standard CO2 levels and in CO2 (5% in incubator) conditions.

E. coli = assay: MIC50 against pathogenic and commensal bacteria: E. coli; type: cell-based; conditions: Escherichia coli; E. coli (8 strains); normal
Description: as §1

L. rhamnosus = assay: MIC50 against pathogenic and commensal bacteria: L. rhamnosus; type: cell-based; conditions: Lacticaseibacillus rhamnosus; L. rhamnosus (1 strain); normal
Description: as §1

Bacteroides = assay: MIC50 against pathogenic and commensal bacteria: Bacteroides; type: cell-based; conditions: Bacteroides (9 strains); normal
Description: as §1

S. aureus = assay: MIC50 against pathogenic and commensal bacteria: S. aureus; type: cell-based; conditions: Staphylococcus aureus; S. aureus (12 strains); normal
Description: as §1

Lactobacillus sp = assay: MIC50 against pathogenic and commensal bacteria: Lactobacillus sp; type: cell-based; conditions: Lactobacillus sp (12 strains); normal
Description: as §1

L. gasseri = assay: MIC50 against pathogenic and commensal bacteria: L. gasseri; type: cell-based; conditions: Lactobacillus gasseri; L. gasseri (4 strains); normal
Description: as §1

E. coli TolC mutant = assay: MIC50 against pathogenic and commensal bacteria: E. coli TolC mutant; type: cell-based; conditions: Escherichia coli
Description: as §1

CCOc1ccc2nc(S(N)(=O)=O)sc2c1 [Ethoxzolamide]
MIC50 (Enterococcus): 4 µg/mL (≈ 15.5 µM) | MIC50 (S. epidermidis): > 256 µg/mL | MIC (ATCC strain 700825; ATCC700825, In CO2): 64 µg/mL (≈ 248 µM) | MIC (ATCC strain 700825; ATCC700825, In air): 0.5 µg/mL (≈ 1.94 µM) | MIC50 (E. coli): > 256 µg/mL | MIC50 (L. rhamnosus): > 256 µg/mL | MIC50 (Bacteroides): > 256 µg/mL | MIC50 (S. aureus): > 256 µg/mL | MIC50 (Lactobacillus sp): > 256 µg/mL | MIC50 (L. gasseri): > 256 µg/mL | MIC50 (E. coli TolC mutant): > 256 µg/mL
